These results are taken from US20090048190A1, “Antiviral activity and resolution of 2-hydroxymethyl-5(5-fluorocytosin-1-yl)-1,3-oxathiolane” (priority 1990, published 2009).

In general, EC50 refers to the concentration needed to bring the measured effect to its halfway point. By IC50 is commonly meant the point on the concentration scale where inhibition reaches its midpoint. Low values mean greater potency, high ones weaker potency.

Each structure is given as a SMILES string. Several values for one entry are separate records, joined by “and”; a condition that tells them apart may be missing. Equal values may be shown once. Read-outs that look alike come from different tables or passages of the source.

The test system of series [1] is HIV-1 (strain LAV). Type of series: cell-based. An excerpt: It is often desirable to screen a number of racemic mixtures of nucleosides as a preliminary step to determine which warrant further resolution into enantiomerically enriched components and further evaluation of antiviral activity. The ability of nucleosides to inhibit HIV can be measured by various experimental techniques. The technique used herein, and described in detail below, measures the inhibition of viral replication in phytohemagglutinin (PHA) stimulated human peripheral blood mononuclear (PBM) cells infected with HIV-1 (strain LAV). The amount of virus produced is determined by measuring the virus-coded reverse transcriptase enzyme. The amount of enzyme produced is proportional to the amount of virus produced.
A. Three-day-old phytohemagglutinin-stimulated PBM cells (10^6 cells/ml) from hepatitis B and HIV-1 seronegative healthy donors were infected with HIV-1 (strain LAV) at a concentration of about 100 times the 50% tissue culture infectious dose (TICD 50) per ml and cultured in the presence and absence of various concentrations of antiviral compounds.
B. Approximately one hour after infection, the medium, with the compound to be tested (2 times the final concentration in medium) or without compound, was added to the flasks (5 ml; final volume 10 ml). AZT was used as a positive control.
C. The cells were exposed to the virus (about 2×10^5 dpm/ml, as determined by reverse transcriptase assay) and then placed in a CO2 incubator. HIV-1 (strain LAV) was obtained from the Center for Disease Control, Atlanta, Ga. The methods used for culturing the PBM cells, harvesting the virus and determining the reverse transcriptase activity were those described by McDougal et al. (J. Immun. Meth. 76, 171-183, 1985) and Spira et al. (J. Clin. Meth. 25, 97-99, 1987), except that fungizone was not included in the medium (see Schinazi, et al., Antimicrob. Agents Chemother. 32, 1784-1787 (1988); Id., 34:1061-1067 (1990)).
D. On day 6, the cells and supernatant were transferred to a 15 ml tube and centrifuged at about 900 g for 10 minutes. Five ml of supernatant were removed and the virus was concentrated by centrifugation at 40,000 rpm for 30 minutes (Beckman 70.1 Ti rotor). The solubilized virus pellet was processed for determination of the levels of reverse transcriptase. Results are expressed in dpm/ml of sampled supernatant. Virus from smaller volumes of supernatant (1 ml) can also be concentrated by centrifugation prior to solubilization and determination of reverse transcriptase levels.

The subject of series [2] is HIV. Particulars: compared with AZT; cited from earlier work.
Series [3] relates to AZT-resistant HIV isolates. Conditions: in vitro, isolates from patients treated with AZT for longer than 36 weeks; cited from earlier work.
The test system of series [4] is human PBM cells. Description: Egress of radiolabeled FTC from human PBM cells. The format is in vitro ADME. Particulars: human PBM cells after 24 h pulse with 10 μM. The method, then:
This study measures the time needed for intracellular levels of triphosphates to decline. Studies were conducted in duplicate. Uninfected cells (2×10^6 ml) were suspended in the appropriate medium supplemented with serum (10 ml per timepoint) and incubated at 37° C. in a 5% CO2 incubator. The radiolabeled FTC concentration was 10 μM. After pulsing the cells with the labeled compound for 24 hours, the cells were thoroughly washed and then replenished with fresh medium without the antiviral drugs (0 hr). At 0, 2, 4, 6, 12, 24, and 48 hours (second incubation time), the cells were removed, and immediately extracted with 60% cold methanol/water. The extract was obtained by centrifugation and removal of the cell pellet. The extracts were lyophilized and then stored at −70° C. Prior to analysis, the material was resuspended in 250 microliters of HPLC buffer and immediately analyzed. Quantitation of intracellular parent drug and metabolic derivatives was conducted by HPLC, using either a Micromeritics or Hewlett-Packard model 1090 PHLC system with an anion exchange Partisil 10 SAX column (Whatman, Inc.), at a flow rate of 1 ml/min, 1 kpsi pressure, with UV detection at 262 nm. The mobile phase consisted of deionized water (A), 2 mM NaH2PO4/16 mM NaOAc (pH=6.6) (B), 15 mM NaH2PO4/120.2 mM NaOAc (pH=6.6) (C), and 100 mM NaH2PO4/800 mM NaOAc (pH=6.6) (D). […]

Series [5] has as its target T1, HIV-1 reverse transcriptase (RT) (Human immunodeficiency virus type 1 group M subtype B, UniProt P04585).
T1 construct: HIV-1 reverse transcriptase (RT)
Description: Inhibition of HIV-1 reverse transcriptase by FTC triphosphate. Type of series: biochemical. Particulars: sequencing analysis, HIV-RT (C-stops). The method, then: Toxicity and pharmacokinetic studies confirm the usefulness of FTC as an antiviral agent for pharmaceutical administration. FTC and its enantiomers are nontoxic to peripheral human bone marrow cells at concentrations up to 50 µM and other cell lines at concentrations up to 200 μM. FTC-TP is a major intracellular metabolite in PBMC and HepG2 cells.

In series [6] the test system is HIV-2. As to the kind of experiment: Antiretroviral activity in different cell systems, HIV-2. Type of series: cell-based. Conditions: PBMC (ROD2). The method, then: Cell lines were obtained from either human donors, AIDS Research and Reference Reagent Program, NIH, Rockville, Md., ATCC, or the Red Cross. The CEM thymidine kinase deficient cells were prepared by sequential passage of CEM cells in the presence of 5-bromo-2′-deoxyuridine.

In series [7] the test system is uninfected human PBM cells. An excerpt:
The cells were counted after 6 days using a hemacytometer and the trypan blue exclusion method, as described by Schinazi et al., Antimicrobial Agents and Chemotherapy, 22(3), 499 (1982).

Series [8] deals with HIV. As to the kind of experiment: microbe, parasite or virus in culture. Type of series: cell-based. Conditions: Human immunodeficiency virus 1; MT4 system.
Series [9] can be described thus: CSF/serum ratio in rhesus monkeys. Type of series: in vivo. Particulars: 1 hour after treatment.
Setting [10] is: PBM cells, procedure similar to Example 6, read-out: EC50.
Setting [11] is: enantiomers resolved by HPLC (Example 4), Table 4, read-out: EC50.
The mark [12] stands for this setting: human PBM cells, HIV-1 strain LAV, Table 3, read-out: Antiviral EC50.

For `CCCC(=O)OC[C@@H]1O[C@H](n2cc(F)c(N)nc2=O)CS1` (racemic) [5′-O-butyrate ester of (±)-FTC], the EC50 in [1] (setting [10]) came out at 0.0017 µM.

With `Nc1ccn(C2CSC(CO)O2)c(=O)n1` (racemic) [(±)-BCH-189, 2-hydroxymethyl-5-(cytosin-1-yl)-1,3-oxathiolane], in series [2], the “activity against HIV” value is on record as “approximately the same activity against HIV as AZT”. The “inhibition of replication of AZT-resistant HIV isolates” value in [3] is recorded as “inhibit the replication of AZT-resistant HIV isolates”.

On to `Nc1nc(=O)n([C@@H]2CS[C@H](COP(=O)(O)OP(=O)(O)OP(=O)(O)O)O2)cc1F` (racemic) [FTC-TP], for which, in [4], the intracellular half-life entry is “approximately 12 hours”. Further, the DNA chain termination result in [5] is on record as “potent DNA chain terminator”.

For `CC(=O)Nc1nc(=O)n(C2CSC(CO)O2)cc1F` (racemic) [N′-acetyl derivative of (±)-FTC], the EC50 in series [1] (setting [10]) is 0.0028 µM.

With `Nc1nc(=O)n(C2CSC(CO)O2)cc1F` (single isomer, unassigned; (-)) [(−)-FTC, (−)-β-L-2-hydroxymethyl-5-(5-fluorocytosin-1-yl)-1,3-oxathiolane], the concentration for a half-maximal effect (EC50) is 0.7 nM in series [6], 0.02 µM in series [1] (setting [11]) and 0.008 µM in series [1] (setting [12]). Also, in [7], the IC50 is above 100 µM. Further, the DPM/ml in series [1] (0.001 μM) is listed as 76,275 DPM/ml; in series [1] (0.005 μM), 58,590 DPM/ml; in series [1] (0.01 μM), 75,350 DPM/ml; in series [1] (0.05 μM), 28,890 DPM/ml; in series [1] (0.1 μM) it was 13,175 DPM/ml; in [1] (0.5 μM) it was 9,485 DPM/ml.

Take `Nc1nc(=O)n([C@H]2CS[C@@H](CO)O2)cc1F` [(+)-FTC, (+)-β-D-2-hydroxymethyl-5-(5-fluorocytosin-1-yl)-1,3-oxathiolane]: the EC50 is 26 nM in [6]; 0.28 µM in series [1] (setting [11]); 0.84 µM in series [1] (enantiomers resolved by method of Example 3, FIG. 6, read-out: EC50). Besides, the IC50 in series [7] is above 100 µM. Moreover, the “% Inhibition (Corrected)” value in series [1] (0.001 μM) was 3.8%; in [1] (0.005 μM) it was −10.6%; in series [1] (0.01 μM), −1.8%; in series [1] (0.05 μM), 11.8%; in [1] (0.1 μM), 12.7%; in series [1] (0.5 μM), 71.4%. In addition, the DPM/ml in series [1] (0.001 μM) is 94,340 DPM/ml; in [1] (0.005 μM), 107,430 DPM/ml; in [1] (0.01 μM) it was 99,465 DPM/ml; in series [1] (0.05 μM), 87,120 DPM/ml; in series [1] (0.1 μM), 86,340 DPM/ml; in series [1] (0.5 μM), 33,225 DPM/ml.

In series [8], `Cc1cn([C@H]2C[C@H](N=[N+]=[N-])[C@@H](CO)O2)c(=O)[nH]c1=O` [AZT, 3′-azido-3′-deoxythymidine, reference compound] showed an IC50 of 90 nM.

The compound `O=c1ccn(C2CSC(CO)O2)c(=O)[nH]1` (stereo not shown) [DLS-009] yielded an IC50 in series [7] above 100 µM. For the same compound, the concentration giving a half-maximal response (EC50) in [1] (setting [12]) was above 100 µM.

As for `Cc1cn(C2CSC(CO)O2)c(=O)[nH]c1=O` (stereo not shown) [DLS-010], in series [1] (setting [12]), the 50% effective concentration (EC50) was found to be 64.4 µM.

Turning to `Cc1cn([C@H]2CS[C@@H](CO)O2)c(=O)nc1N` [DLS-011], in series [1] (setting [12]), the half-maximal effective concentration (EC50) is above 10 µM.

For the compound `Nc1nc(=O)n([C@H]2CS[C@@H](CO)O2)cc1Br` [DLS-021], the EC50 in series [1] (setting [12]) turned out to be 77.4 µM.

Consider `Nc1nc(=O)n([C@H]2CS[C@@H](CO)O2)cc1Cl` [DLS-023], for which, in series [1] (setting [12]), the EC50 amounted to 38.7 µM.

As to `Nc1nc(=O)n([C@H]2CS[C@@H](CO)O2)cc1I` [DLS-026], the EC50 in [1] (setting [12]) is 0.72 µM.

Consider `O=c1[nH]c(=O)n([C@H]2CS[C@@H](CO)O2)cc1F` [DLS-027], for which the IC50 in series [7] was above 100 µM. In addition, in series [1] (setting [12]), the EC50 is above 100 µM.

Turning to `O=c1[nH]c(=O)n([C@H]2CS[C@@H](CO)O2)cc1Cl` [DLS-028], in [1] (setting [12]), the half-maximal effective concentration (EC50) was found to be 60.8 µM.

In [7], `O=c1[nH]c(=O)n([C@H]2CS[C@@H](CO)O2)cc1I` [DLS-029] returned a 50% inhibitory concentration (IC50) above 100 µM. In addition, the EC50 in [1] (setting [12]) was above 100 µM.

Turning to `O=c1[nH]c(=O)n([C@H]2CS[C@@H](CO)O2)cc1Br` [DLS-044], in series [7], the IC50 was above 100 µM. Further, in series [1] (setting [12]), the 50% effective concentration (EC50) was above 100 µM.

Consider `Nc1nc(=O)n([C@@H]2CS[C@H](CO)O2)cc1C(F)(F)F` [DLS-053], for which the EC50 in series [1] (setting [12]) was 60.7 µM.

On to `O=c1[nH]c(=O)n(C2CSC(CO)O2)cc1F` (stereo not shown) [FTU], for which the “CSF/Serum Ratio of deaminated metabolite (FTU)” value in series [9] (I.V. FTC 33.3 mg/kg, individual monkeys) is 0.024 and 0.032 and 0.052; in series [9] (I.V. FTC 33.3 mg/kg, mean), 0.036; in series [9] (P.O. FTC 33.3 mg/kg, individual monkeys), 0.026 and 0.037 and 0.055; in series [9] (P.O. FTC 33.3 mg/kg, mean), 0.039.
